From patent US20160002267A1, “BENZYL-SUBSTITUTED PYRAZOLOPYRIDINES AND USE THEREOF” (BAYER PHARMA AKTIENGESELLSCHAFT, priority 2013, published 2016)

Target: T1, guanylate cyclase (Rattus norvegicus, UniProt P19686+P20595)
T1 construct: expressed in transfected cells; host or cells: recombinant reporter cell line
T1 sequence (P20595 1-619): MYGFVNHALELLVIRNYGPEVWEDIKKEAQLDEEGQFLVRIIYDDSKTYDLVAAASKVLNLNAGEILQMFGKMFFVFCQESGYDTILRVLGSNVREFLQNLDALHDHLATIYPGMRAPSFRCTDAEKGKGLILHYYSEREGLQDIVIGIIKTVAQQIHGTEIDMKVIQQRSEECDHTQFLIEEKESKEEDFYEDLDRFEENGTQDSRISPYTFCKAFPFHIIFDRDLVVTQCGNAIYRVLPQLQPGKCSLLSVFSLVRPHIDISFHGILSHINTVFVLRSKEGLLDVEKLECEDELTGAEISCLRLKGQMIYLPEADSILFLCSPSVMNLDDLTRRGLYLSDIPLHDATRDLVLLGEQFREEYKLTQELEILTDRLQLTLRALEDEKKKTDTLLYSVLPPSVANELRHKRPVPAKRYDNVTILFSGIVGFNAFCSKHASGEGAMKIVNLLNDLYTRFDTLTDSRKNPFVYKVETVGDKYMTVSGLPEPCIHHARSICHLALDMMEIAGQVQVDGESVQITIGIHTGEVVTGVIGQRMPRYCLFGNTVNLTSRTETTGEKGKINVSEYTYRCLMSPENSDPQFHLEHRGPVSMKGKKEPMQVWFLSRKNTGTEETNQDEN
T1 sequence (P19686 1-690): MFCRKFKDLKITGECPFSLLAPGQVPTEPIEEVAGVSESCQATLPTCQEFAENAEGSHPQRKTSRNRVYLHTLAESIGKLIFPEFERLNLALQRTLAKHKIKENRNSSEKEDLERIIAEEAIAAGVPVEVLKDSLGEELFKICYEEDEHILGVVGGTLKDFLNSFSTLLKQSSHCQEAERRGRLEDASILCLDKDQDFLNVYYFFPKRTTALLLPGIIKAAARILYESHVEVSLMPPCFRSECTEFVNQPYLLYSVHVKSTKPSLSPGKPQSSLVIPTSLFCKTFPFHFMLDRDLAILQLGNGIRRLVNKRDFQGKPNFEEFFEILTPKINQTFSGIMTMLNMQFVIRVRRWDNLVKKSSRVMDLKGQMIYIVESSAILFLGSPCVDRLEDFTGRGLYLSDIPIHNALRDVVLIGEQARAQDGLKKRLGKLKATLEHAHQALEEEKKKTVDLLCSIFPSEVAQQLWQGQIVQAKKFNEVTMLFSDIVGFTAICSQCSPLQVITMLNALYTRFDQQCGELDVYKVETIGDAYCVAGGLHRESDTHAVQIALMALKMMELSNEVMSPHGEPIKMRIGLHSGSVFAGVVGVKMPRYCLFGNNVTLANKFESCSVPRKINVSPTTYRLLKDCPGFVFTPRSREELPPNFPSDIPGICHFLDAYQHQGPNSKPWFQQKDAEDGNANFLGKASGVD
Experiment: Effect on a recombinant guanylate cyclase reporter cell line
Type: cell-based
Method: The cellular activity of the compounds according to the invention is determined using a recombinant guanylate cyclase reporter cell line, as described in F. Wunder et al., Anal. Biochem. 339, 104-112 (2005).

MEC (minimum effective concentration): 0.1 µM
Compound: CC1(C(F)(F)F)C(=O)Nc2nc(-c3nn(Cc4ccccc4F)c4ncc(F)cc34)nc(NCCC(F)(F)F)c21 (single isomer, unassigned) [Example 1-1, 2-[5-Fluoro-1-(2-fluorobenzyl)-1H-pyrazolo[3,4-b]pyridin-3-yl]-5-methyl-5-(trifluoromethyl)-4-[(3,3,3-trifluoropropyl)amino]-5,7-dihydro-6H-pyrrolo[2,3-d]pyrimidin-6-one]
